Assay results published in US20130236473A1, “THERAPEUTIC AGENTS AND PROPHYLACTIC AGENTS FOR SYMPTOMS ACCOMPANYING AUTOIMMUNE DISEASES, INFLAMMATORY DISEASES, ALLERGY DISEASES AND ORGAN TRANSPLANTS” (OSAKA UNIVERSITY, priority 2010, published 2013).

Tested on: IL-6 amplifier
Experiment: Example 2: PI3 kinase inhibitors, mIL-6 protein production on IL-6 amplifier activation in BC-1 cells (ELISA)
Type: cell-based
Conditions: 24 hours, conditions (a) to (d), 0 or 100 ng/ml mouse epiregulin, LY294002 0.1-10, PIK75 0.01-1.0 micromole/L
Experimental: 2×10^5 mouse BC-1 cells were cultured in an RPMI 1640 medium for 24 hours under each of the following conditions: • (a) in the presence of 10% FBS, • (b) with the addition of 50 ng/ml of hIL-6 protein and 50 ng/ml of hIL-6R protein (hereinafter referred to as “hIL-6/6R proteins”) and in the presence of 10% FBS, • (c) with the addition of 50 ng/ml of mIL-17A protein and in the presence of 10% FBS, • (d) with the addition of hIL-6/6R proteins at 50 ng/ml and mIL-17A protein at 50 ng/ml and in the presence of 10% FBS, • (e) in the absence of FBS, • (f) with the addition of hIL-6/6R proteins each at 50 ng/ml and in the absence of FBS, • (g) with the addition of 50 ng/ml of mIL-17A protein and in the absence of FBS, or • (h) with the addition of hIL-6/6R proteins each at 50 ng/ml and mIL-17A protein at 50 ng/ml and in the absence of FBS. […]
After the culture, the production amount of mouse IL-6 protein under each condition was quantified by an ELISA method. […]

SMILES: O=c1cc(N2CCOCC2)oc2c(-c3ccccc3)cccc12 [LY294002, 2-(4-Morpholinyl)-8-phenyl-4H-1-benzopyran-4-one]
- increase in the expression amount of mIL-6 protein due to the activation of IL-6 amplifier: can be suppressed
